US20260191823A1, “PROPHYLACTIC OR THERAPEUTIC AGENT FOR ACUTE KIDNEY INJURY INDUCED BY ANTICANCER AGENT” (KYOWA HAKKO BIO CO., LTD., priority 2022, published 2026)

Key:
[1] = system: Human proximal renal tubular cells (HK-2); assay: Suppression effect on cisplatin-induced cytotoxicity in renal tubular cells (cell counting kit-8); assay type: cell-based; conditions: for suppression of cell death over the tested concentrations: 0.01-100 μM test compound, cisplatin 20 μM for 24 h; for suppression of cell death over the tested concentrations / concentration showing a significant cell death-suppressing effect: FIG. 1; for concentration showing a significant cell death-suppressing effect: 0.5 h pre-treatment with test compound, then cisplatin 20 μM for 24 h
Protocol: Human proximal renal tubular cells (HK-2) were seeded into a 96-well plate containing medium at a density of 5×10^3 cells/well. After confirming that the seeded cells had adhered to the plate, each test compound (GSSSG or Na2S4) was added so that the final concentration was 0 μM, 0.01 μM, 0.02 μM, 0.10 μM, 0.39 μM, 1.56 μM, 6.25 μM, 25 μM, or 100 μM, followed by standing at 37° C. for 0.5 hours. Each test compound was dissolved in PBS and then added.
The supernatant in each well was removed, and the cells were washed with PBS. […] Thereafter, cell viability was evaluated using cell counting kit-8 (Dojindo).
The composition of the medium used in Example 1 was as follows: • D-MEM/Ham's F-12 (FUJIFILM Wako Pure Chemical Corporation)+Penicillin-Streptomycin-Amphotericin B (FUJIFILM Wako Pure Chemical Corporation)+GlutaMAX (Thermo Fisher Scientific)+10% FBS.

[2] = system: cisplatin-induced acute kidney injury model animal; assay: Cisplatin-induced acute kidney injury model animal; assay type: in vivo; conditions: administration group
[3] = system: cisplatin-induced renal injury; conditions: 5.6 mg/kg intraperitoneal; cited from earlier work
[4] = system: renal dysfunction caused by administration of cisplatin; conditions: 300 mg/kg intraperitoneally; cited from earlier work

SMILES | suppression of cell death over the tested concentrations ([1]; HK-2 cells) | concentration showing a significant cell death-suppressing effect ([1]; HK-2 cells) | cell death-suppressing effect relative to Na2S4 ([1]; HK-2 cells, cisplatin 20 μM, compares 0.1 μM with 100 μM) | number of viable renal tubular cells ([1]; test compound 0.1 μM, cisplatin added, fluorescence images, FIG. 2) | elevation of blood urea nitrogen (BUN) level [2] | elevation of serum creatinine (CRE) level [2] | effect on cisplatin-induced renal injury [3] | cisplatin-induced body weight suppression [4] | cisplatin-induced elevated blood urea nitrogen [4]
N[C@@H](CCC(=O)N[C@@H](CSSSC[C@H](NC(=O)CC[C@H](N)C(=O)O)C(=O)NCC(=O)O)C(=O)NCC(=O)O)C(=O)O [GSSSG, glutathione trisulfide] | tendency to suppress cell death in a concentration-dependent manner | 0.1 µM | about 1000 times | notably higher | could be suppressed | could be suppressed | – | – | –
[Na+].[Na+].[S-]SS[S-] [Na2S4, reference compound] | tendency to suppress cell death in a concentration-dependent manner | 100 µM | – | – | – | – | effective | – | –
CC(C)OC(=O)CNC(=O)C(CS)NC(=O)CCC(N)C(=O)O.O=S(=O)(O)O (centres unmarked) [glutathione monoisopropyl ester sulfate] | – | – | – | – | – | – | – | alleviates | alleviates
